In patent publication US10689395B2, “Tricyclic fused pyridin-2-one derivatives and their use as BRD4 inhibitors” (JUBILANT BIOSYS LIMITED, priority 2015, dated 2020):
Like-named read-outs stand apart in the source and are kept apart here.

Columns and labels:
MV4-11 cells = assay: Anticancer activity: Alamar Blue assay, 3-day proliferation; format: cell-based; details: AML cell line MV4-11, 72 h, read-out: MV4-11 EC50_μM
Procedure: Anticancer Activity: Alamar Blue Assay
The impact of the compounds on cancer cell proliferation was determined using the AML cell line MV4-11 (ATCC) in a 3-day proliferation assay. MV4-11 cells were maintained in RPMI supplemented with 10% FBS at 37° C., 5% CO2. For compound testing, MV4-11 cells were plated in a 96-well black bottom plate at a density of 15,000 cells/well in 100 μL culture media and incubated at 37° C. overnight. Compound dilution series were prepared in DMSO via a 3-fold serial dilution from 100 μM to 0.005 μM. The DMSO dilution series were then diluted with media, with the final compound concentrations added to the wells ranging from 10 μM to 0.0005 μM. […] The fluorescent readings from the Alamar Blue assay were normalized to the DMSO treated cells and analyzed using the GraphPad Prism software with sigmoidal curve fitting to obtain EC50.

BRD4-BD1 = BRD4-BD1 (Homo sapiens (Human), UniProt O60885); assay: BRD4 AlphaLISA (Perkin Elmer); format: binding; details: 5 nM BRD4-BD1, 12 nM biotinylated substrate, read-out: BRD4_BD1 IC50_μM
Procedure: BRD4 AlphaLISA (Perkin Elmer)
Compounds were diluted by step-down dilution method (final concentration of DMSO was 1%) and added to the wells of a 384 well opti plate at desired concentrations. 5 nM BDR4-BD1 enzyme (produced in-house) and 12 nM of biotinylated substrate were added to the wells, covered and incubated at room temperature (RT) for 1 h. At the end of 1 h 250 ng of GSH acceptor beads were added to the well and incubated for 1 h at RT; then 500 ng of streptavidin donor beads were added and incubated again for 1 h at RT. Plates were read in a Pherastar reader at 680 nm excitation and 570 nm emission. As detailed above, compounds were tested for both BRD4 enzyme inhibitory activities and IC50 were determined.

| Structure (SMILES) | EC50 (MV4-11 cells; Homo sapiens) [nM] | IC50 (BRD4-BD1) [nM] | EC50 (MV4-11 cells) [nM] |
| --- | --- | --- | --- |
| CCOC(=O)CC1N=C(c2ccc(Cl)cc2)c2c(cnn2C)-c2cn(C)c(=O)cc21 (racemic) [w, ±Ethyl 2-(4-(4-chlorophenyl)-3,9-dimethyl-8-oxo-3,6,8,9-tetrahydropyrazolo[3,4-c]pyrido[3,4-e]azepin-6-yl)acetate] | – | 10 | 26 |
| Cc1sc2c(c1C)C(c1ccc(Cl)cc1)OC(CC(N)=O)c1cc(=O)n(C)cc1-2 (racemic) [ee, ±2-(4-(4-chlorophenyl)-2,3,9-trimethyl-8-oxo-4,6,8,9-tetrahydrothieno[2′,3′:5,6]oxepino[4,3-c]pyridin-6-yl)acetamide] | 7 | 2 | – |
| CCNC(=O)CC1N=C(c2ccc(C#N)cc2)c2c(sc(C)c2C)-c2cn(C)c(=O)cc21 (stereo in doubt) [k, (R)-2-(4-(4-cyanophenyl)-2,3,9-trimethyl-8-oxo-8,9-dihydro-6H-pyrido[4,3-c]thieno[2,3-e]azepin-6-yl)-N-ethylacetamide] | 25 | < 0.5 | – |
| Cc1sc2c(c1C)C(c1ccc(Cl)cc1)=NC(CC(=O)Nc1ccc(O)cc1)c1cc(=O)n(C)cc1-2 (racemic) [h, ±2-(4-(4-chlorophenyl)-2,3,9-trimethyl-8-oxo-8,9-dihydro-6H-pyrido[4,3-c]thieno[2,3-e]azepin-6-yl)-N-(4-hydroxyphenyl)acetamide] | – | 33 | – |
| CCNC(=O)CC1OC(c2ccc(Cl)cc2)c2c(sc(C)c2C)-c2cn(C)c(=O)cc21 (racemic) [bb, ±2-(4-(4-chlorophenyl)-2,3,9-trimethyl-8-oxo-4,6,8,9-tetrahydrothieno[2′,3′:5,6]oxepino[4,3-c]pyridin-6-yl)-N-ethylacetamide] | – | 1 | < 0.5 |
| CCNC(=O)CC1OC(c2ccc(Cl)cc2)c2c(cnn2C)-c2cn(C)c(=O)cc21 (racemic) [ll, ±2-(4-(4-chlorophenyl)-3,9-dimethyl-8-oxo-4,6,8,9-tetrahydro-3H-pyrazolo[4′,3′:5,6]oxepino[4,3-c]pyridin-6-yl)-N-ethylacetamide] | – | 1 | < 0.5 |

The next lines start with the values.

| EC50 (MV4-11 cells; Homo sapiens) [nM] | IC50 (BRD4-BD1) [nM] | EC50 (MV4-11 cells) [nM] | Structure (SMILES) |
| --- | --- | --- | --- |
| 53 | 5 | – | CCNC(=O)C[C@@H]1N=C(c2ccc(Cl)cc2)c2c(cnn2C)-c2cn(C)c(=O)cc21 [z, (S)-2-(4-(4-chlorophenyl)-3,9-dimethyl-8-oxo-3,6,8,9-tetrahydropyrazolo[3,4-c]pyrido[3,4-e]azepin-6-yl)-N-ethylacetamide] |
| – | 140 | 430 | CCOC(=O)CC1N=C(c2ccc(Cl)cc2)c2nc(C)sc2-c2cn(C)c(=O)cc21 (racemic) [l, ±Ethyl 2-(4-(4-chlorophenyl)-2,9-dimethyl-8-oxo-8,9-dihydro-6H-pyrido[4,3-c]thiazolo[5,4-e]azepin-6-yl)acetate] |
| – | 1 | 140 | CCNC(=O)CC1N=C(c2ccc(Cl)cc2)c2nc(C)sc2-c2cn(C)c(=O)cc21 (racemic) [m, ±2-(4-(4-chlorophenyl)-2,9-dimethyl-8-oxo-8,9-dihydro-6H-pyrido[4,3-c]thiazolo[5,4-e]azepin-6-yl)-N-ethylacetamide] |
| – | 10 | 157 | CCNC(=O)CC1N=C(CC2CC2)c2c(sc(C)c2C)-c2cn(C)c(=O)cc21 (racemic) [r, ±2-(4-(cyclopropylmethyl)-2,3,9-trimethyl-8-oxo-8,9-dihydro-6H-pyrido[4,3-c]thieno[2,3-e]azepin-6-yl)-N-ethylacetamide] |
| 10 | 2.2 | – | CCNC(=O)CC1N=C(c2ccc(Cl)cc2)c2c(sc(C)c2C)-c2cn(C)c(=O)cc21 (racemic) [b, ±2-(4-(4-chlorophenyl)-2,3,9-trimethyl-8-oxo-8,9-dihydro-6H-pyrido[4,3-c]thieno[2,3-e]azepin-6-yl)-N-ethylacetamide] |
| – | 17 | – | Cc1sc2c(c1C)C(c1ccc(Cl)cc1)OC(CCO)c1cc(=O)n(C)cc1-2 (racemic) [hh, ±4-(4-chlorophenyl)-6-(2-hydroxyethyl)-2,3,9-trimethyl-4,9-dihydrothieno[2′,3′:5,6]oxepino[4,3-c]pyridin-8(6H)-one] |
| 7 | 2 | – | Cc1sc2c(c1C)C(c1ccc(Cl)cc1)=NC(CC(N)=O)c1cc(=O)n(C)cc1-2 (racemic) [e, ±2-(4-(4-chlorophenyl)-2,3,9-trimethyl-8-oxo-8,9-dihydro-6H-pyrido[4,3-c]thieno[2,3-e]azepin-6-yl)acetamide] |
| – | 2 | 17 | CCNC(=O)CC1N=C(c2ccc(Cl)cc2)c2cc(OC)ncc2-c2cn(C)c(=O)cc21 (racemic) [t, ±2-(7-(4-chlorophenyl)-9-methoxy-2-methyl-3-oxo-3,5-dihydro-2H-dipyrido[4,3-c:3′,4′-e]azepin-5-yl)-N-ethylacetamide] |
